What all share (assay): MIC (C.M.I.) in agar medium
What all share (type): cell-based

One assay deals with E. Coli. The source says: (§1) Par exemple, nous décrivons les C.M.I. (concentrations minimales inhibitrices) en µg/ml, obtenues en milieu gélosé pour un inoculum de 10^4 à 10^5 bactéries par millilitre, du composé B 1067.
Another assay has as its system S. faecalis. The settings on record: Enterococcus faecalis, ATCC14508, S. faecalis ATCC 14508, inoculum 10^4 à 10^5 bacteria per ml.
Source text: as §1

The subject of a further assay is S. aureus. Particulars: Staphylococcus aureus.
Source text: as §1

The subject of the next assay is Salmonella E. The settings on record: Salmonella E. CNCM 57.29, inoculum 10^4 à 10^5 bacteria per ml.
Source text: as §1

The test system of the next assay is Serratia. Particulars: Serratia 22.579, inoculum 10^4 à 10^5 bacteria per ml.
Source text: as §1

Another assay relates to Klebsiella p. The settings on record: Klebsiella p. La 433, inoculum 10^4 à 10^5 bacteria per ml.
Source text: as §1

In brackets after ≈: the same amount, converted by molar mass.

A word on the MIC: it is the least concentration at which growth counts as inhibited. Regarding `C[C@H](N)C(=O)N[C@@H](C)P(=O)(O)O` [B 1067, Selde l'amino-2-(hydroxyméthyl)-2-propanediol-1,3 avec l'acide L-Alanyl-L-(amino-1)-éthylphosphonique], the C.M.I. with E. Coli (E. Coli CNCM 53.126, inoculum 10^4 à 10^5 bacteria per ml) is reported as 0,25 µg/ml. The MIC came to 0.25 mg/L (≈ 1.27 µM) against E. Coli (Escherichia coli, E. Coli CNCM 54.8, inoculum 10^4 à 10^5 bacteria per ml); 32 mg/L (≈ 163 µM) in the assay on S. faecalis; 32 mg/L (≈ 163 µM) against S. aureus (ATCC63, S. aureus ATCC 63.58 P, inoculum 10^4 à 10^5 bacteria per ml); 8 mg/L (≈ 40.8 µM) against S. aureus (ATCC29213, S. aureus ATCC 29213, inoculum 10^4 à 10^5 bacteria per ml); 32 mg/L (≈ 163 µM) with S. aureus (S. aureus CNCM 52.149, inoculum 10^4 à 10^5 bacteria per ml); 1 mg/L (≈ 5.1 µM) with Salmonella E.. Besides, the MIC against Serratia was 32 to 64 mg/L (≈ 163 to 326 µM); in the assay with Klebsiella p. it was 16 mg/L (≈ 81.6 µM).
